Laboratory results reported in PubChem BioAssay AID2060887 (Molecular Pharmacology Branch, DTP, NCI, 2025).

Tested on: 782815-120-R-J1-PDC complex spheroid viability
Test: Anticancer human tumor 782815-120-R-J1-PDC patient-derived colon adenocarcinoma cell line growth inhibition [RAS]
Conditions: for IC50: curve of first compound; for viability, T/C: stronger effect = lower value; active = viability on the fitted dose curve at most 10% of control; inactive = the rest
Excerpt: RAS pathway inhibitors in Combinations in Complex Spheroids
A high-throughput screen of multi-cell type tumor spheroids was designed to identify active combinations of RAS pathway inhibitors and targeted small molecules. Complex spheroids include a stromal component modeled by human endothelial cells (HUVEC) and fibroblasts modeled by human mesenchymal stem cells (MSCs). The concentration ranges selected for each drug and investigational agent were based upon clinically achievable concentrations if the clinical Cmax of the agent was known.
Compounds. The drugs and investigational agents: abemaciclib (NSC768073), cobimetinib (NSC768068), divarasib (GDC6063, NSC841802), docetaxel (NSC628503), GDC-1971 (RLY-1971, NSC841576), gemcitabine (NSC613327), inavolisib (NSC800729), ipatasertib (NSC767898), KB-0742 (NSC834161), MRTX-1133 (NSC836407), osimertinib (NSC779217), RMC-4630 (NSC839698), RMC-6236 (NSC851965), RMC-6291 (NSC852671), Ro-3306 (NSC812927), sapanisertib (NSC764658), SN-38 (NSC673596), staurosporine (NSC755774), SY5609 (NSC837396), and tovorafenib (DAY101, NSC766906), were obtained from the National Cancer Institute (NCI) Developmental Therapeutics Program Chemical Repository. The FDA-approved anticancer drug set is available from the NCI Developmental Therapeutics Program. […] The stock solutions were prepared in dimethyl sulfoxide (DMSO, Sigma-Aldrich, St. Louis, MO, cat. D2650) at 800-fold the tested concentration and stored at -70 degrees C prior to their use. All drugs and investigational agents were tested over a range starting from a high concentration at or near the clinical Cmax and decreasing in half-log increments. If the clinical Cmax for an agent had not been determined, the highest concentration tested was 10 microM.
Cell Culture. All cells were maintained in an incubator at 37 degrees C and 5% CO2 with 95% humidity. The PDC lines were cultured according to standard operating procedures established by the NCI PDMR. All PDCs were thawed and cultured in Matrigel-coated flasks prepared with a working solution of 1X Ham's F-12 nutrient mix, without supplementation (Invitrogen, Waltham, MA, cat. 11765054), 100 U/mL penicillin-streptomycin (Invitrogen, cat. 15140122), and 2.5% Matrigel (Corning Inc., Corning, NY, cat. 354248) for the first three passages. The 362531-283-R-J2-PDC and 782815-120-R-J1-PDC lines were cultured in 6C/Colon 1B media, which includes advanced DMEM/F-12 (Thermo Fisher Scientific, cat. 12634028), 10 mM HEPES (Thermo Fisher Scientific, cat. 15630080), 1X GlutaMAX supplement (Thermo Fisher Scientific, cat. 35050061), 0.1 mg/mL primocin (InvivoGen, San Diego, CA, cat. ant-pm-2), 10% defined fetal bovine serum, heat inactivated (HyClone Laboratories Inc., Logan, UT, cat. SH30070.03HI), 50% L-WRN conditioned media (ATCC, cat. CRL-3276), 1.25 mM N-Acetyl-L-cysteine (Sigma-Aldrich, cat. A9165), 10 mM nicotinamide (Sigma-Aldrich, cat. N0636), 1X B-27 supplement (Thermo Fisher Scientific, cat. 17504044), 1X N-2 supplement (Thermo Fisher Scientific, cat. 17502048), 50 ng/mL human EGF (Thermo Fisher Scientific, cat. PHG0311), and 10 microM Y-27632 dihydrochloride (Tocris Bioscience, cat. 1254). The K12877-001-R-J1-PDC line was cultured in 6I media, which includes all 6C/Colon 1B media plus 10 ng/mL human FGF-10 (PeproTech, cat. 100-26), 1 ng/mL human FGF-2 (PeproTech, cat. 100-18B), 1 µM prostaglandin E2 (Tocris Bioscience, cat. 2296), […] hydrocortisone (Sigma-Aldrich, cat. H4001), and […] bovine insulin (Sigma-Aldrich, cat. I6634). The K86415-001-R-J1-PDC line was cultured in 6D media, which includes all 6C/Colon 1B media components minus the L-WRN conditioned media. The 485176-168-R4-J1-PDC was cultured in PANC media, which includes all 6C/Colon 1B media plus 100 ng/mL human FGF-10 (PeproTech, cat. 100-26), 500 nM SB-431542 (Selleckchem, cat. S1067), and 10 nM gastrin (Tocris Bioscience, cat. 3006). […]
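Note: spheroids exposed to compounds for 7 days before reading.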

CCc1c2c(nc3ccc(O)cc13)-c1cc3c(c(=O)n1C2)COC(=O)[C@]3(O)CC + C=CC(=O)N1CCN(c2nc(OCC3CCCN3C)nc3c(F)c(-c4nc(N)cc(C)c4C(F)(F)F)c(Cl)cc23)C(C)C1
4.39 nM: IC50 (second compound 1 µM)
4.6 nM: IC50 (second compound 0.0316 µM)
3.92 nM: IC50 (second compound 0.1 µM)
inactive: viability, T/C (second compound 0.00316 µM, first compound 0.000949 µM) 91.2% | viability, T/C (second compound 0.00316 µM, first compound 0.003 µM) 60.4% | viability, T/C (second compound 0.00316 µM, first compound 0.00949 µM) 22.1% | viability, T/C (second compound 0.01 µM, first compound 0.000949 µM) 97.2% | viability, T/C (second compound 0.01 µM, first compound 0.003 µM) 58.9% | viability, T/C (second compound 0.01 µM, first compound 0.00949 µM) 21.3% | viability, T/C (second compound 0.0316 µM, first compound 0.000949 µM) 99.2% | viability, T/C (second compound 0.0316 µM, first compound 0.003 µM) 67.4% | viability, T/C (second compound 0.0316 µM, first compound 0.00949 µM) 20% | viability, T/C (second compound 0.1 µM, first compound 0.000949 µM) 92.8% | viability, T/C (second compound 0.1 µM, first compound 0.003 µM) 59.4% | viability, T/C (second compound 0.1 µM, first compound 0.00949 µM) 19.2% | viability, T/C (second compound 0.316 µM, first compound 0.000949 µM) 100% | viability, T/C (second compound 0.316 µM, first compound 0.003 µM) 60.7% | viability, T/C (second compound 0.316 µM, first compound 0.00949 µM) 20.4% | viability, T/C (second compound 1 µM, first compound 0.000949 µM) 99.3% | viability, T/C (second compound 1 µM, first compound 0.003 µM) 65% | viability, T/C (second compound 1 µM, first compound 0.00949 µM) 19.3%
3.93 nM: IC50 (second compound 0.01 µM)
active: viability, T/C (second compound 0.00316 µM, first compound 0.03 µM) 9.72% | viability, T/C (second compound 0.00316 µM, first compound 0.0949 µM) 3.7% | viability, T/C (second compound 0.00316 µM, first compound 0.3 µM) 1.61% | viability, T/C (second compound 0.01 µM, first compound 0.03 µM) 9.84% | viability, T/C (second compound 0.01 µM, first compound 0.0949 µM) 3.15% | viability, T/C (second compound 0.01 µM, first compound 0.3 µM) 1.53% | viability, T/C (second compound 0.0316 µM, first compound 0.03 µM) 9.96% | viability, T/C (second compound 0.0316 µM, first compound 0.0949 µM) 3.02% | viability, T/C (second compound 0.0316 µM, first compound 0.3 µM) 1.51% | viability, T/C (second compound 0.1 µM, first compound 0.03 µM) 8.28% | viability, T/C (second compound 0.1 µM, first compound 0.0949 µM) 4.23% | viability, T/C (second compound 0.1 µM, first compound 0.3 µM) 1.49% | viability, T/C (second compound 0.316 µM, first compound 0.03 µM) 9.08% | viability, T/C (second compound 0.316 µM, first compound 0.0949 µM) 3.9% | viability, T/C (second compound 0.316 µM, first compound 0.3 µM) 1.28% | viability, T/C (second compound 1 µM, first compound 0.03 µM) 10.1% | viability, T/C (second compound 1 µM, first compound 0.0949 µM) 3.83% | viability, T/C (second compound 1 µM, first compound 0.3 µM) 1.36%
4.1 nM: IC50 (second compound 0.00316 µM)
4.07 nM: IC50 (second compound 0.316 µM)

O=C(c1ccc(F)c(F)c1Nc1ccc(I)cc1F)N1CC(O)([C@@H]2CCCCN2)C1 + CCn1c(-c2cccnc2C(C)OC)c2c3cc(ccc31)N1CCOC(CC(NC(=O)C(C(C)C)N(C)C(=O)C3(F)CCN(C(=O)C#CC(C)(C)N(C)C)CC3)C(=O)N3CCCC(N3)C(=O)OCC(C)(C)C2)C1
53.4 nM: IC50 (second compound 0.003 µM)
45.5 nM: IC50 (second compound 0.00949 µM)
51.9 nM: IC50 (second compound 0.03 µM)
46.1 nM: IC50 (second compound 0.0949 µM)
40.6 nM: IC50 (second compound 0.3 µM)
inactive: viability, T/C (second compound 0.000949 µM, first compound 0.00316 µM) 91.2% | viability, T/C (second compound 0.000949 µM, first compound 0.01 µM) 74.1% | viability, T/C (second compound 0.000949 µM, first compound 0.0316 µM) 60% | viability, T/C (second compound 0.000949 µM, first compound 0.1 µM) 35.2% | viability, T/C (second compound 0.000949 µM, first compound 0.316 µM) 17% | viability, T/C (second compound 0.003 µM, first compound 0.00316 µM) 85.9% | viability, T/C (second compound 0.003 µM, first compound 0.01 µM) 73.5% | viability, T/C (second compound 0.003 µM, first compound 0.0316 µM) 60.6% | viability, T/C (second compound 0.003 µM, first compound 0.1 µM) 39.1% | viability, T/C (second compound 0.003 µM, first compound 0.316 µM) 16.4% | viability, T/C (second compound 0.00949 µM, first compound 0.00316 µM) 88% | viability, T/C (second compound 0.00949 µM, first compound 0.01 µM) 74.6% | viability, T/C (second compound 0.00949 µM, first compound 0.0316 µM) 57.7% | viability, T/C (second compound 0.00949 µM, first compound 0.1 µM) 34.5% | viability, T/C (second compound 0.00949 µM, first compound 0.316 µM) 15.9% | viability, T/C (second compound 0.03 µM, first compound 0.00316 µM) 79.2% | viability, T/C (second compound 0.03 µM, first compound 0.01 µM) 86.5% | viability, T/C (second compound 0.03 µM, first compound 0.0316 µM) 55.3% | viability, T/C (second compound 0.03 µM, first compound 0.1 µM) 36.6% | viability, T/C (second compound 0.03 µM, first compound 0.316 µM) 14.8% | viability, T/C (second compound 0.0949 µM, first compound 0.00316 µM) 78.3% | viability, T/C (second compound 0.0949 µM, first compound 0.01 µM) 73.4% | viability, T/C (second compound 0.0949 µM, first compound 0.0316 µM) 55.4% | viability, T/C (second compound 0.0949 µM, first compound 0.1 µM) 36.5% | viability, T/C (second compound 0.0949 µM, first compound 0.316 µM) 16.3% | viability, T/C (second compound 0.3 µM, first compound 0.00316 µM) 81.3% | viability, T/C (second compound 0.3 µM, first compound 0.01 µM) 66.4% | viability, T/C (second compound 0.3 µM, first compound 0.0316 µM) 56.3% | viability, T/C (second compound 0.3 µM, first compound 0.1 µM) 35.5% | viability, T/C (second compound 0.3 µM, first compound 0.316 µM) 14.2%
active: viability, T/C (second compound 0.000949 µM, first compound 1 µM) 1.9% | viability, T/C (second compound 0.003 µM, first compound 1 µM) 2.12% | viability, T/C (second compound 0.00949 µM, first compound 1 µM) 1.1% | viability, T/C (second compound 0.03 µM, first compound 1 µM) 1.32% | viability, T/C (second compound 0.0949 µM, first compound 1 µM) 3.86% | viability, T/C (second compound 0.3 µM, first compound 1 µM) 0.95%
47.7 nM: IC50 (second compound 0.000949 µM)
